Source: paper PMC8648852, “Pyrazoline derivatives as promising novel antischistosomal agents” (Scientific Reports, 2021)

Assays:
S. mansoni adult worm = assay: In vitro antischistosomal assay (viability of ex vivo adult worms); type: cell-based, Schistosoma mansoni; details: Schistosoma mansoni, 72 h, ex vivo adult schistosomes; brackets = 95% confidence interval
Protocol: For biological screening, S. mansoni adult parasites were isolated from the mouse infection model (parasite ex vivo) and all compounds were initially screened at 50 µM. The gold-standard antiparasitic compound praziquantel was used as a positive control and DMSO at 0.5% v/v (representing the highest concentration of solvent) served as a negative control. […] For the remaining compounds tested, no EC50 values could be calculated due to lack of activity at 50 μM. […] In tandem, our findings confirm that pyrazolines have a potent antiparasitic activity. Indeed, few compounds in the literature are active at low concentrations for review see[11],[19]. According to criteria established by the World Health Organization (WHO) for antiparasitic hits, leads, and drug candidates, at the start of a screening campaign a compound should inhibit mobility of helminths in vitro at 10 μg/mL[20], commonly ranging from 30 to 40 μM. Thus, the anthelminthic activity of pyrazolines surpasses criteria established by the WHO.
Adult schistosomes (BH strain) were isolated from infected mice and cultured in RPMI medium + 10% fetal calf serum and 100 U/mL penicillin and 100 μg/mL streptomycin in a 24-well culture plate (Corning, New York, NY, USA) containing one pair of parasites per well at 37 °C and 5% CO2 (Panasonic Healthcare, Sakata, Oizumi-machi, Japan)[38],[39]. For antischistosomal assay, compounds were dissolved in DMSO (final concentration of 0.5% v/v). Each drug concentration was tested at least in triplicate, and the experiments were repeated three times. The initial concentration of the pyrazolines and praziquantel was 50 μM and 3 μM, respectively, which was serially diluted in medium with twofold dilutions to give six concentrations[40],[41]. The negative control worms were assayed in RPMI 1640 medium and RPMI 1640 with 0.5% DMSO. Parasites were monitored daily at 24, 48 and 72 h under a stereomicroscope (Leica Microsystems EZ4E, Wetzlar, Germany) and an inverted microscope (BEL Engineering INV 100, Monza, MB, Italy). Egg production was evaluated daily as previously described. Parasite viability was averaged and 50% effective concentrations (EC50) were calculated using GraphPad Prism software[24],[43].

melting point [°C] | EC50 (S. mansoni adult worm) [µM] | Compound
105.5 to 108.4 | > 50 | CCCCCCCCCCOc1ccc(C2CC(c3ccc(F)cc3)=NN2C(N)=S)cc1 (stereo not shown) [Compound 30, 3-(4-fluorophenyl)-4,5-dihydro-5-(4-(decyloxy)phenyl)pyrazole-1-carbothioamide]
– | > 50 | Cc1ccc(-c2cc(-c3ccc(F)cc3)[nH]n2)cc1 [Compound 32, 5-(4-fluorophenyl)-3-(4-methylphenyl)-1H-pyrazole]
217 to 219 | > 50 | Fc1ccc(-c2cc(-c3ccc(Br)cc3)n[nH]2)cc1 [Compound 33, 3-(4-bromophenyl)-5-(4-fluorophenyl)-1H-pyrazole]
92.2 to 94.6 | > 50 | CCCCCCCCCCCCCCOc1ccc(C2CC(c3ccc(F)cc3)=NN2C(N)=S)cc1 (stereo not shown) [Compound 31, 3-(4-fluorophenyl)-4,5-dihydro-5-(4-(tetradecyloxy)phenyl)pyrazole-1-carbothioamide]
– | > 50 | Fc1ccc(-c2cc(-c3ccc(Cl)cc3)n[nH]2)cc1 [Compound 34, 3-(4-chlorophenyl)-5-(4-fluorophenyl)-1H-pyrazole]

More lines, now with the values behind:

Compound | melting point [°C] | EC50 (S. mansoni adult worm) [µM]
NC(=O)N1N=C(c2ccc(F)cc2)CC1c1ccc(Br)cc1 (stereo not shown) [Compound 20, 5-(4-bromophenyl)-3-(4-fluorophenyl)-4,5-dihydropyrazole-1-carboxamide] | 176 to 178 | > 50
CCCCCCCCCCCCOc1ccc(C2CC(c3ccccc3)=NN2C(N)=S)cc1 (stereo not shown) [Compound 27, 5-(4-(dodecyloxy)phenyl)-4,5-dihydro-3-phenylpyrazole-1-carbothioamide] | 94.2 | > 50
CCCCCCCCOc1ccc(C2CC(c3ccccc3)=NN2C(N)=S)cc1 (stereo not shown) [Compound 24, 4,5-dihydro-5-(4-(octyloxy)phenyl)-3-phenylpyrazole-1-carbothioamide] | 90.4 to 92.1 | > 50
CCCCCCCCCOc1ccc(C2CC(c3ccccc3)=NN2C(N)=S)cc1 (stereo not shown) [Compound 25, 4,5-dihydro-5-(4-(nonyloxy)phenyl)-3-phenylpyrazole-1-carbothioamide] | 86.4 to 88.2 | > 50
CCCCOc1ccc(C2CC(c3ccccc3)=NN2C(N)=O)cc1 (stereo not shown) [Compound 15, 5-(4-butoxyphenyl)-4,5-dihydro-3-phenylpyrazole-1-carboxamide] | – | > 50
CCCCCCCCCCCCCCOc1ccc(C2CC(c3ccccc3)=NN2C(N)=S)cc1 (stereo not shown) [Compound 28, 4,5-dihydro-3-phenyl-5-(4-(tetradecyloxy)phenyl)pyrazole-1-carbothioamide] | 97 to 99.2 | > 50
CCCCCCCCCOc1ccc(C2CC(c3ccc(F)cc3)=NN2C(N)=S)cc1 (stereo not shown) [Compound 29, 3-(4-fluorophenyl)-4,5-dihydro-5-(4-(nonyloxy)phenyl)pyrazole-1-carbothioamide] | 113 to 114 | > 50
CCCCCCCCCCCCOc1ccc(C2CC(c3ccccc3)=NN2C(N)=O)cc1 (stereo not shown) [Compound 17, 5-(4-(dodecyloxy)phenyl)-4,5-dihydro-3-phenylpyrazole-1-carboxamide] | 94.8 to 97.9 | > 50
CCCCCCCCCCOc1ccc(C2CC(c3ccccc3)=NN2C(N)=S)cc1 (stereo not shown) [Compound 26, 5-(4-(decyloxy)phenyl)-4,5-dihydro-3-phenylpyrazole-1-carbothioamide] | 96.2 to 98.9 | > 50
